The source made the active and inactive calls. The calls are words filed in the database; no cut-off is given here.
Tests used:
[1] = Half-life in male Sprague-Dawley rat at 60 mg/kg, po measured after 24 hrs by LC-MS/MS analysis; type: ADME, organism-based; details: in vivo
[2] = Apparent permeability across apical to basolateral side in human Caco-2 cells at 5 uM incubated for 2 hrs by LC-MS/MS analysis; type: ADME, cell-based
[3] = Inhibition of ERK1/2 phosphorylation in human ASPC1 cells harboring KRAS G12D mutant incubated for 4 hrs by AlphaLISA assay; type: cell-based; details: ASPC1, 4 h
NCI-H1975 = assay: Inhibition of ERK1/2 phosphorylation in human NCI-H1975 cells harboring wildtype KRAS incubated for 4 hrs by AlphaLISA assay; type: cell-based
[4] = Half-life in male Sprague-Dawley rat at 1 mg/kg, iv measured after 24 hrs by LC-MS/MS analysis; type: ADME, organism-based; details: in vivo
[5] = Genotoxicity in Salmonella typhimurium by Ames test; type: toxicity; details: salmonella enterica subsp. enterica serovar typhimurium
[6] = Toxicity in human PBL cells in absence of rat S9 fraction by micronucleus assay; type: cell-based

## CCn1c(-c2cc(N3CCN(C)CC3)cnc2[C@H](C)OC)c2c3cc(ccc31)-c1csc(n1)C[C@H](NC(=O)[C@H]1C[C@@H]1C)C(=O)N1CCC[C@H](N1)C(=O)OCC(C)(C)C2
[1]
  half-life: 2.8 h
[2]
  Papp A→B at 2 h, 5 µM: 4 nm/s
[3]
  EC50: 3.6 nM
NCI-H1975
  inhibition: Active
[4]
  half-life: 1.7 h
[5]
  Activity: Non-toxic
[6]
  Activity: Non-toxic

Reference: ChEMBL document CHEMBL6115029, “Discovery of Daraxonrasib (RMC-6236), a Potent and Orally Bioavailable RAS(ON) Multi-selective, Noncovalent Tri-complex Inhibitor for the Treatment of Patients with Multiple RAS-Addicted Cancers” (J Med Chem, 2025)
